Results taken from patent US9809623B2, “α4β7 peptide monomer and dimer antagonists” (Protagonist Therapeutics, Inc., priority 2014, dated 2017).
Read-outs that look alike come from different tables or passages of the source. Numbered stars: 1 amine (or outer) side, 2 acyl side, 3 side chain; on linkers, the order of the positions; unused ones are H or OH. Bridge positions count the residues as written; N and C are the ends. Square brackets hold non-standard residues; d marks the D form. Peptide text beside a SMILES is read from it. I, II: the chains in the order shown. Phe(4-tBu) = CC(C)(C)c1ccc(C[C@H](N)C(=O)O)cc1; 2Nal = N[C@@H](Cc1ccc2ccccc2c1)C(=O)O; Diglycolyl = O=C(COCC(=O)[*:2])[*:1]; NMeR = CN[C@@H](CCCNC(=N)N)C(=O)O; hPhe = N[C@@H](CCc1ccccc1)C(=O)O; Aic = NC1(C(=O)O)Cc2ccccc2C1; NMeK = CN[C@@H](CCCCN)C(=O)O; Pen = CC(C)(S)[C@H](N)C(=O)O; βAla = NCCC(=O)O

Assays:
[1] = Simulated Intestinal Fluid (SIF) Stability Assay; assay type: in vitro ADME, porcine; details: pig, pH 6.5, Table 3-B, > means experiment was stopped at that time and half life was not reached, read-out: Stabilty SIF t1/2
Summary of the method: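 Intestinal stability: percent peptide remaining over time, by LC-MS/MS peak-area ratio to internal standard, fitted to first-order decay for half-life. Conditions: 22 μM peptide, 1% pancreatin in pH 6.5 blank FASSIF, 37 °C.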

α4β7 = α4β7 (Homo sapiens, UniProt P13612+P26010); test: α4β7-MAdCAM Cell Adhesion Assay (RPMI 8866 human cells); assay type: cell-based; design: host or cells: RPMI 8866 human B lymphoblastoid cells; details: Table 3-B, Potency (α4β7); range classes; read-out: α4β7 cell (Hu) IC50
Summary of the method: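 Adhesion read-out: MTT absorbance at 570 nm minus no-cell wells, after three washes. Plates coated with rh MAdCAM-1/Fc received peptide dilutions plus 200,000 RPMI 8866 cells in Mn2+ (1 mM)-supplemented DMEM, 0.1% BSA, HEPES pH 7, incubated 30-45 min, 37 °C.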

rh integrin α4β7 = target: T1, rh integrin α4β7 (Homo sapiens, UniProt P13612+P26010); test: α4β7-MAdCAM Competition ELISA; assay type: binding; details: Table 3-B, Potency (α4β7); range classes; read-out: α4β7 ELISA IC50
T1 construct: purchased R&D Systems 5397-A30
Protocol: A nickel coated plate (Pierce #15442) was coated with rh integrin α4β7 (R&D Systems #5397-A30) at 800 ng/well and incubated at room temperature with shaking for 1 hr. The solution was then removed by shaking and blocked with assay buffer (50 mM Tris-HCl pH7.6, 150 mM NaCl, 1 mM MnCl2 or MgCl2, 0.05% Tween-20 and 0.5% BSA) at 250 ul/well. The plate was then incubated at room temperature for 1 hr. Each well was washed 3 times with wash buffer (50 mM Tris-HCl pH7.6, 100 mM NaCl, 1 mM MnCl2 or MgCl2, 0.05% Tween-20). To each well was added 25 ul of a serial dilution (3-fold dilutions in assay buffer) of peptide starting at 20 μM. 25 ul of recombinant human MAdCAM-1 (R&D Systems #6056-MC) was then added to each well at a fixed concentration 20 nM. The final starting peptide concentration was 10 μM, and the final MAdCAM-1 concentration was 10 nM. The plates were then incubated at room temperature for 1 hr to reach binding equilibrium. The wells were then washed three times with wash buffer. 50 ul of mouse anti-human IgG1-HRP (Invitrogen # A10648) diluted in 1:2000 in assay buffer was then added to each well. The wells were incubated at room temperature for 45 min with shaking. The wells were then washed 3 times with wash buffer. 100 ul of 3,3′,5,5′-Tetramethylbenzidine (TMB) were then added to each well and closely observe during development time. The reaction was stopped with 2N H2SO4 and absorbance was read at 450 nm.
TMB is a chromogenic substrate suitable for use in ELISA procedures, which utilize horseradish peroxidase conjugates. This substrate produces a soluble end product that is blue in color and can be read spectrophotometrically at 370 or 655 nm. The reaction maybe stopped with 2 M H2S04, resulting in a yellow solution that is read at 450 nm. Each tablet contains 1 mg of TMB substrate. To prepare TMB Substrate Solution, dissolve one 3,3′,5,5′-tetramethylbenzidine tablet in 1 ml of DMSO and add to 9 ml of 0.05 M Phosphate-Citrate Buffer, pH 5.0. Add 2 μl of fresh 30% hydrogen peroxide (Product No. H 1009) per 10 ml of substrate buffer solution, immediately prior to use.

[2] = simulated intestinal fluid (SIF) with porcine pancreatin
[3] = simulated intestinal fluid (SIF) with 1% porcine pancreatin

Chain of α4β7 (P13612 34-1032): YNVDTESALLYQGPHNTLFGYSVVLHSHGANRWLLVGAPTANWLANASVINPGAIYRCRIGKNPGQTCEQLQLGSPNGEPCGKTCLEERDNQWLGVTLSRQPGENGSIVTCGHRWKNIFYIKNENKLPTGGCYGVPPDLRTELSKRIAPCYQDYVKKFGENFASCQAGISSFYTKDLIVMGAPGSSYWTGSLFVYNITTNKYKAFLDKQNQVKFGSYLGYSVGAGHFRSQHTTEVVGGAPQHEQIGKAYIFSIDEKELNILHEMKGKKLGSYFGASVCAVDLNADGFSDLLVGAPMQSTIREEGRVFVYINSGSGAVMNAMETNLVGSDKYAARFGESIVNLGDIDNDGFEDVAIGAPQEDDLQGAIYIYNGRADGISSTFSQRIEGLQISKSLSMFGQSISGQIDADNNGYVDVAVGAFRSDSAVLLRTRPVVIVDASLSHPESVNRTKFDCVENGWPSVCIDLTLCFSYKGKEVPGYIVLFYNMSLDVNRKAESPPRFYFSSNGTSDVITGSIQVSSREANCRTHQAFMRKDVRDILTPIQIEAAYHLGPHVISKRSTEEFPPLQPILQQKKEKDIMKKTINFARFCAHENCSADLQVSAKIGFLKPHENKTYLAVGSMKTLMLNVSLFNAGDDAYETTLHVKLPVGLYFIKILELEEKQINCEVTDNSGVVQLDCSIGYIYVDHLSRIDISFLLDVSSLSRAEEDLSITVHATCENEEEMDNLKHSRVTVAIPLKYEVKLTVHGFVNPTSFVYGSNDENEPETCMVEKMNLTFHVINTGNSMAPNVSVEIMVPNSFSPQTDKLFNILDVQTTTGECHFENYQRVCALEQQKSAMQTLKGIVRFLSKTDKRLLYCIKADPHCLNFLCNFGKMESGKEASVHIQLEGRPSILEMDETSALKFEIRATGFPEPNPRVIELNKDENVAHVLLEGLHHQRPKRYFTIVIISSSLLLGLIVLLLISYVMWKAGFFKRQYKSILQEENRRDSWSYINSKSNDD
Chain of α4β7 (P26010 20-798): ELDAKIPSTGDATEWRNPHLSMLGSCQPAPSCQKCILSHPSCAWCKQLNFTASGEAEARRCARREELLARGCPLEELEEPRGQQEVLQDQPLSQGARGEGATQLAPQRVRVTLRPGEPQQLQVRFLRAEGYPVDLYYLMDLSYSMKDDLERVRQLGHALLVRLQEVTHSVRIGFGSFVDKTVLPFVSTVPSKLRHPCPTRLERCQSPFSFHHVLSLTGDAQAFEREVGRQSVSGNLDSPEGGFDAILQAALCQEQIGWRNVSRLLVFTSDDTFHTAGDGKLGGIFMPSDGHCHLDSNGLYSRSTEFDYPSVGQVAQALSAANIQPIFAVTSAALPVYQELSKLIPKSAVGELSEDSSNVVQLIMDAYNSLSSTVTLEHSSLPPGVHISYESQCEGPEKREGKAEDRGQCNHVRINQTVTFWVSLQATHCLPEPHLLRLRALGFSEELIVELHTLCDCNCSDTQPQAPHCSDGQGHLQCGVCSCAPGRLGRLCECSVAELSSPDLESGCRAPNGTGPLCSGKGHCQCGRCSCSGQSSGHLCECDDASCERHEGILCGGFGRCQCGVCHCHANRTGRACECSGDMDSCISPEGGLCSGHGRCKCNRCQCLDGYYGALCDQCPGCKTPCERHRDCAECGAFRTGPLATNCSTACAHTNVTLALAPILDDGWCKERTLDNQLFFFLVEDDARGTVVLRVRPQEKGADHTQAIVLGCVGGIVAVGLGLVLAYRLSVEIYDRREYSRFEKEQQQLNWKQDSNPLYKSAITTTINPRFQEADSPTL
T1 sequence (P13612 34-977 limits assumed): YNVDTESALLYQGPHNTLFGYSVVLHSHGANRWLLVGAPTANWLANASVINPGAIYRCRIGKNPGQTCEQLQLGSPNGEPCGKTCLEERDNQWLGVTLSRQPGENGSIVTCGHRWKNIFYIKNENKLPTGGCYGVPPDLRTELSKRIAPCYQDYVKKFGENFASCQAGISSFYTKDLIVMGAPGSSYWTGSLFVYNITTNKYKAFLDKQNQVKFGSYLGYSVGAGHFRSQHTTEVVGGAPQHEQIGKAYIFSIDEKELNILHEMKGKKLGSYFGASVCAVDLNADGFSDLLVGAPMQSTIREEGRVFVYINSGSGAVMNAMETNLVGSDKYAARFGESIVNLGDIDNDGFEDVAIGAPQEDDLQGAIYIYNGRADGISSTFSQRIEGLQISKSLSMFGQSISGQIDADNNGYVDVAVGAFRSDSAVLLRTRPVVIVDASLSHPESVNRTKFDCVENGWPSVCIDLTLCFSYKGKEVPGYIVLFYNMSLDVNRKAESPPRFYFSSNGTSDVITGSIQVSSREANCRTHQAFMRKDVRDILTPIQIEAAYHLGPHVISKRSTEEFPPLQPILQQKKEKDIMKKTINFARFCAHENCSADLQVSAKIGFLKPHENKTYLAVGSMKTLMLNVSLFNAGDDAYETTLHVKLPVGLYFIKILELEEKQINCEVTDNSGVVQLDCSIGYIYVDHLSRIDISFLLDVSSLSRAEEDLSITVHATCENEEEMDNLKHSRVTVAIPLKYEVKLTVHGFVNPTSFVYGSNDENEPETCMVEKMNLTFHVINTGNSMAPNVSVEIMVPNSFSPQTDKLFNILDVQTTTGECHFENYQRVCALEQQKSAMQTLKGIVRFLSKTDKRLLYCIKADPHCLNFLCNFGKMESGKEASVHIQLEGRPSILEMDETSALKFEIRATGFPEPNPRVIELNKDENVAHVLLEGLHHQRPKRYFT
T1 sequence (P26010 20-723 limits assumed): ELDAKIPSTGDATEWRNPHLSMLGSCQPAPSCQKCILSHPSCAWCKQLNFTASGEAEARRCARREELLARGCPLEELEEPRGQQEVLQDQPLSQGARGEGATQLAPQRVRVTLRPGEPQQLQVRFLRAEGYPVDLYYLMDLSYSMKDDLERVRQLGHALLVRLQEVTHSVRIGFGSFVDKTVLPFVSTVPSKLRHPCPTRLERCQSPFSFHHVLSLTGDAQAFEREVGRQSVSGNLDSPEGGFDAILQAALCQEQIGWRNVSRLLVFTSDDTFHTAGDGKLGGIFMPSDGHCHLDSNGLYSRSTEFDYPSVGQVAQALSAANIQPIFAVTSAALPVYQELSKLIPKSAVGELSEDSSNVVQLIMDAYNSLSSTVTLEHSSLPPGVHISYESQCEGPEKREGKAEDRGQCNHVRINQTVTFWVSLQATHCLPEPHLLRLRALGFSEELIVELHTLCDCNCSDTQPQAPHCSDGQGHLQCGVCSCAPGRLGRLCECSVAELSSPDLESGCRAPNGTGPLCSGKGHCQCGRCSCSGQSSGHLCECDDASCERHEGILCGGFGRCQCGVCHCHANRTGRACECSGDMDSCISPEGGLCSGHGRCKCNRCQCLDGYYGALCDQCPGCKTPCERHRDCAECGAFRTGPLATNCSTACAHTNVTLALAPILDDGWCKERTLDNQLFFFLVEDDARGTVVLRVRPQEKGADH

SMILES	half-life at 22 μM [1, 2]	IC50 (α4β7)	IC50 (rh integrin α4β7)	half-life at 22 μM [1, 3]
CC(C)C[C@@H]1NC(=O)[C@H]([C@@H](C)O)NC(=O)[C@H](CC(=O)O)NC(=O)[C@H](CO)NC(=O)[C@H](CCCNC(=N)N)N(C)C(=O)[C@@H](NC(=O)CCN)C(C)(C)SSC(C)(C)[C@@H](C(=O)N[C@@H](Cc2c[nH]c3ccccc23)C(=O)N[C@@H](CCC(=O)O)C(N)=O)NC1=O [compound 52] (H-[βAla][Pen][NMeR]SDTL[Pen]WE-NH2; disulfide 2-8)	1.95 h	100 to 500 nM	10 to 25 nM	–
CC(=O)N[C@@H]1C(=O)N(C)[C@@H](CCCNC(=N)N)C(=O)N[C@@H](CO)C(=O)N[C@@H](CC(=O)O)C(=O)N[C@@H]([C@@H](C)O)C(=O)N[C@@H](CC(C)C)C(=O)N[C@H](C(=O)N[C@@H](Cc2ccc3ccccc3c2)C(=O)N[C@@H](CCc2ccccc2)C(=O)N[C@H](CCCCN)C(N)=O)C(C)(C)SSC1(C)C [compound 50] (Ac-[Pen][NMeR]SDTL[Pen][2Nal][hPhe][dK]-NH2; disulfide 1-7)	–	–	10 to 25 nM	1.73 h
CC(=O)N[C@@H]1C(=O)N(C)[C@@H](CCCNC(=N)N)C(=O)N[C@@H](CO)C(=O)N[C@@H](CC(=O)O)C(=O)N[C@@H]([C@@H](C)O)C(=O)N[C@@H](CC(C)C)C(=O)N[C@H](C(=O)N[C@@H](Cc2c[nH]c3ccccc23)C(=O)N[C@@H](CCC(=O)O)C(=O)N2CCC[C@H]2C(=O)N[C@H](CCCCN)C(N)=O)C(C)(C)SSC1(C)C [compound 49] (Ac-[Pen][NMeR]SDTL[Pen]WEP[dK]-NH2; disulfide 1-7)	–	–	10 to 25 nM	> 3 h
CC(=O)N[C@@H]1C(=O)N(C)[C@@H](CCCNC(=N)N)C(=O)N[C@@H](CO)C(=O)N[C@@H](CC(=O)O)C(=O)N[C@@H]([C@@H](C)O)C(=O)N[C@@H](CC(C)C)C(=O)N[C@H](C(=O)N[C@@H](Cc2ccc3ccccc3c2)C(=O)N[C@H](CCC(=O)O)C(=O)N[C@H](CCCCNC(=O)COCC(=O)NCCCC[C@@H](NC(=O)[C@@H](CCC(=O)O)NC(=O)[C@H](Cc2ccc3ccccc3c2)NC(=O)[C@H]2NC(=O)[C@H](CC(C)C)NC(=O)[C@H]([C@@H](C)O)NC(=O)[C@H](CC(=O)O)NC(=O)[C@H](CO)NC(=O)[C@H](CCCNC(=N)N)N(C)C(=O)[C@@H](NC(C)=O)C(C)(C)SSC2(C)C)C(N)=O)C(N)=O)C(C)(C)SSC1(C)C [compound 29] (I: Ac-[Pen][NMeR]SDTL[Pen][2Nal][dE][dK]-NH2 / II: Ac-[Pen][NMeR]SDTL[Pen][2Nal][dE][dK]-NH2; disulfide I:1-I:7, II:1-II:7; linker I:10-II:10 via Diglycolyl)	–	10 to 25 nM	< 10 nM	> 3 h
CC(=O)N[C@@H]1C(=O)N(C)[C@@H](CCCNC(=N)N)C(=O)N[C@@H](CO)C(=O)N[C@@H](CC(=O)O)C(=O)N[C@@H]([C@@H](C)O)C(=O)N[C@@H](CC(C)C)C(=O)N[C@H](C(=O)N[C@@H](Cc2ccc(C(C)(C)C)cc2)C(=O)O)C(C)(C)SSC1(C)C [compound 151] (Ac-[Pen][NMeR]SDTL[Pen][Phe(4-tBu)]-OH; disulfide 1-7)	–	50 to 100 nM	10 to 25 nM	3.12 h
CC(=O)N[C@@H]1C(=O)N(C)[C@@H](CCCNC(=N)N)C(=O)N[C@@H](CO)C(=O)N[C@@H](CC(=O)O)C(=O)N[C@@H]([C@@H](C)O)C(=O)N[C@@H](CC(C)C)C(=O)N[C@H](C(=O)N[C@@H](Cc2c[nH]c3ccccc23)C(=O)NC2(C(=O)N[C@H](CCCCN)C(N)=O)Cc3ccccc3C2)C(C)(C)SSC1(C)C [compound 51] (Ac-[Pen][NMeR]SDTL[Pen]W[Aic][dK]-NH2; disulfide 1-7)	–	–	25 to 50 nM	3 h
CC(=O)N[C@@H]1C(=O)N(C)[C@@H](CCCNC(=N)N)C(=O)N[C@@H](CO)C(=O)N[C@@H](CC(=O)O)C(=O)N[C@@H](CC(=O)O)C(=O)N[C@@H](CC(C)C)C(=O)N[C@H](C(=O)N[C@@H](Cc2c[nH]c3ccccc23)C(=O)N[C@@H](CCC(=O)O)C(=O)N[C@H](CCCCN)C(N)=O)C(C)(C)SSC1(C)C [compound 46] (Ac-[Pen][NMeR]SDDL[Pen]WE[dK]-NH2; disulfide 1-7)	–	–	1000 to 10000 nM	> 3 h
CC(C)C[C@@H]1NC(=O)[C@H]([C@@H](C)O)NC(=O)[C@H](CC(=O)O)NC(=O)[C@H](CO)NC(=O)[C@H](CCCNC(=N)N)N(C)C(=O)[C@@H](NC(=O)CCN)C(C)(C)SSC(C)(C)[C@@H](C(=O)N[C@@H](Cc2c[nH]c3ccccc23)C(=O)N[C@H](CCC(=O)O)C(N)=O)NC1=O [compound 53] (H-[βAla][Pen][NMeR]SDTL[Pen]W[dE]-NH2; disulfide 2-8)	> 3 h	–	10 to 25 nM	–
CC(=O)N[C@@H]1C(=O)N(C)[C@@H](CCCNC(=N)N)C(=O)N[C@@H](CO)C(=O)N[C@@H](CC(=O)O)C(=O)N[C@@H]([C@@H](C)O)C(=O)N[C@@H](CC(C)C)C(=O)N[C@H](C(=O)N[C@@H](Cc2ccc3ccccc3c2)C(=O)N[C@@H](CCC(=O)O)C(=O)N(C)[C@@H](CCCCNC(=O)COCC(=O)NCCCC[C@@H](C(N)=O)N(C)C(=O)[C@H](CCC(=O)O)NC(=O)[C@H](Cc2ccc3ccccc3c2)NC(=O)[C@H]2NC(=O)[C@H](CC(C)C)NC(=O)[C@H]([C@@H](C)O)NC(=O)[C@H](CC(=O)O)NC(=O)[C@H](CO)NC(=O)[C@H](CCCNC(=N)N)N(C)C(=O)[C@@H](NC(C)=O)C(C)(C)SSC2(C)C)C(N)=O)C(C)(C)SSC1(C)C [compound 138] (I: Ac-[Pen][NMeR]SDTL[Pen][2Nal]E[NMeK]-NH2 / II: Ac-[Pen][NMeR]SDTL[Pen][2Nal]E[NMeK]-NH2; disulfide I:1-I:7, II:1-II:7; linker I:10-II:10 via Diglycolyl)	–	10 to 25 nM	10 to 25 nM	–
CC(=O)N[C@@H]1C(=O)N(C)[C@@H](CCCNC(=N)N)C(=O)N[C@H](CC(=O)O)C(=O)N[C@@H](CC(=O)O)C(=O)N[C@@H]([C@@H](C)O)C(=O)N[C@@H](CC(C)C)C(=O)N[C@H](C(=O)N[C@@H](Cc2c[nH]c3ccccc23)C(=O)N[C@@H](CCC(=O)O)C(=O)N[C@H](CCCCN)C(N)=O)C(C)(C)SSC1(C)C [compound 48] (Ac-[Pen][NMeR][dD]DTL[Pen]WE[dK]-NH2; disulfide 1-7)	–	–	1000 to 10000 nM	> 3 h
